≈ marks a conversion by molar mass, not a printed value.
Assays:
MRSA and SA strains = test: MIC, summary over S. aureus strains; format: cell-based, Staphylococcus aureus; conditions: MRSA clinical isolate and MSSA ATCC29213; from MICs
Procedure: (§1) Susceptibility to teixobactin and its analogues was tested on the selected Gram-positive strains using Tecan Freedom EVO high-throughput automated platform, following the standard broth dilution method as described by the Clinical and Laboratory Standards Institute ^3. MICS were determined according to CLSI guideline.

MRSA(SA11I4) = format: cell-based, Staphylococcus aureus
Procedure: as §1

SA (ATCC29213) = format: cell-based, Staphylococcus aureus
Procedure: as §1

Enterococcus ET60 = format: cell-based
Procedure: as §1

Enterococcus ATCCET = format: cell-based
Procedure: as §1

Enterococcus ET6 = format: cell-based
Procedure: as §1

[1] = tested on: Streptococcus faecalis SF; format: cell-based
Procedure: as §1

MRSA SA88 = format: cell-based, Staphylococcus aureus
Procedure: as §1

MRSA SA11 = format: cell-based, Staphylococcus aureus
Procedure: as §1

MRSA SA86 = format: cell-based, Staphylococcus aureus
Procedure: as §1

Minimum inhibitory concentration (MIC) MRSA(SA11I4) (MRSA(SA11I4))	Minimum inhibitory concentration (MIC) SA (ATCC29213) (SA (ATCC29213))	Minimum inhibitory concentration (MIC) Enterococcus ET60 (Enterococcus ET60)	Minimum inhibitory concentration (MIC) Enterococcus ATCCET (Enterococcus ATCCET)	Minimum inhibitory concentration (MIC) Enterococcus ET6 (Enterococcus ET6)	Minimum inhibitory concentration (MIC) Streptococcus faecalis SF [1]	Minimum inhibitory concentration (MIC) MRSA SA88 (MRSA SA88)	Minimum inhibitory concentration (MIC) MRSA SA11 (MRSA SA11)	Minimum inhibitory concentration (MIC) MRSA SA86 (MRSA SA86)	Structure (SMILES)	Antibacterial activity compared with teixobactin (MRSA and SA strains)
2 µg/mL (≈ 1.61 µM)	0.5 µg/mL (≈ 0.403 µM)								CC[C@@H](C)[C@@H](NC(=O)[C@@H](CCC(N)=O)NC(=O)[C@H](CO)NC(=O)[C@@H](NC(=O)[C@@H](Cc1ccccc1)NC)[C@@H](C)CC)C(=O)N[C@H](C(=O)N[C@@H](CO)C(=O)N[C@H]1C(=O)N[C@@H](C)C(=O)N[C@@H](CC2CCCCC2)C(=O)N[C@@H]([C@@H](C)CC)C(=O)O[C@H]1C)[C@@H](C)CC [Cha10-teixobactin]	comparable activities as teixobactin
1 µg/mL (≈ 0.82 µM)	0.25 µg/mL (≈ 0.205 µM)								CC[C@@H](C)[C@@H](NC(=O)[C@@H](CCC(N)=O)NC(=O)[C@H](CO)NC(=O)[C@@H](NC(=O)[C@@H](Cc1ccccc1)NC)[C@@H](C)CC)C(=O)N[C@H](C(=O)N[C@@H](CO)C(=O)N[C@H]1C(=O)N[C@@H](C)C(=O)N[C@@H](CCSC)C(=O)N[C@@H]([C@@H](C)CC)C(=O)O[C@H]1C)[C@@H](C)CC [Met10-teixobactin/Methibactin, Met10-teixobactin]	two times higher activities than teixobactin
2 µg/mL (≈ 1.66 µM)	0.5 µg/mL (≈ 0.416 µM)								CCCC[C@@H]1NC(=O)[C@H](C)NC(=O)[C@H](NC(=O)[C@H](CO)NC(=O)[C@@H](NC(=O)[C@H](NC(=O)[C@@H](CCC(N)=O)NC(=O)[C@H](CO)NC(=O)[C@@H](NC(=O)[C@@H](Cc2ccccc2)NC)[C@@H](C)CC)[C@H](C)CC)[C@@H](C)CC)[C@H](C)OC(=O)[C@H]([C@@H](C)CC)NC1=O [Nle10-teixobactin]	comparable activities as teixobactin
1 µg/mL (≈ 0.842 µM)	0.25 µg/mL (≈ 0.211 µM)								CCC[C@@H]1NC(=O)[C@H](C)NC(=O)[C@H](NC(=O)[C@H](CO)NC(=O)[C@@H](NC(=O)[C@H](NC(=O)[C@@H](CCC(N)=O)NC(=O)[C@H](CO)NC(=O)[C@@H](NC(=O)[C@@H](Cc2ccccc2)NC)[C@@H](C)CC)[C@@H](C)CC)[C@@H](C)CC)[C@H](C)OC(=O)[C@H]([C@@H](C)CC)NC1=O [Nva10-teixobactin]	two times higher activities than teixobactin
1 µg/mL (≈ 0.798 µM)	0.5 µg/mL (≈ 0.399 µM)								CC[C@H](C)[C@H](NC(=O)[C@@H](Cc1ccccc1)NC)C(=O)N[C@@H](CO)C(=O)N[C@H](CCC(N)=O)C(=O)N[C@@H](C(=O)N[C@H](C(=O)N[C@@H](CO)C(=O)N[C@H]1C(=O)N[C@@H](C)C(=O)N[C@@H](Cc2ccc(F)cc2)C(=O)N[C@@H]([C@@H](C)CC)C(=O)O[C@H]1C)[C@@H](C)CC)[C@@H](C)CC [Phe(4-F)10-teixobactin/Flurobactin, Phe(4-F)10-teixobactin]	two times higher activities than teixobactin
1 µg/mL (≈ 0.815 µM)	0.5 µg/mL (≈ 0.408 µM)	0.5 µg/mL (≈ 0.408 µM)	1 µg/mL (≈ 0.815 µM)	1 µg/mL (≈ 0.815 µM)	0.5 µg/mL (≈ 0.408 µM)	0.5 µg/mL (≈ 0.408 µM)	0.5 µg/mL (≈ 0.408 µM)	1 µg/mL (≈ 0.815 µM)	CC[C@@H](C)[C@@H](NC(=O)[C@@H](CCC(N)=O)NC(=O)[C@H](CO)NC(=O)[C@@H](NC(=O)[C@@H](Cc1ccccc1)NC)[C@@H](C)CC)C(=O)N[C@H](C(=O)N[C@@H](CO)C(=O)N[C@H]1C(=O)N[C@@H](C)C(=O)N[C@@H](C2CCCCC2)C(=O)N[C@@H]([C@@H](C)CC)C(=O)N[C@H]1C)[C@@H](C)CC [T83]	
1 µg/mL (≈ 0.833 µM)	0.5 µg/mL (≈ 0.416 µM)	1 µg/mL (≈ 0.833 µM)	1 µg/mL (≈ 0.833 µM)	1 µg/mL (≈ 0.833 µM)	1 µg/mL (≈ 0.833 µM)	1 µg/mL (≈ 0.833 µM)	0.5 µg/mL (≈ 0.416 µM)	1 µg/mL (≈ 0.833 µM)	CC[C@@H](C)[C@@H](NC(=O)[C@@H](CCC(N)=O)NC(=O)[C@H](CO)NC(=O)[C@@H](NC(=O)[C@@H](Cc1ccccc1)NC)[C@@H](C)CC)C(=O)N[C@H](C(=O)N[C@@H](CO)C(=O)N[C@H]1C(=O)N[C@@H](C)C(=O)N[C@@H]([C@@H](C)CC)C(=O)N[C@@H]([C@@H](C)CC)C(=O)N[C@H]1C)[C@@H](C)CC [T84]	
1 µg/mL (≈ 0.843 µM)	0.5 µg/mL (≈ 0.421 µM)	2 µg/mL (≈ 1.69 µM)	2 µg/mL (≈ 1.69 µM)	2 µg/mL (≈ 1.69 µM)	1 µg/mL (≈ 0.843 µM)	2 µg/mL (≈ 1.69 µM)	1 µg/mL (≈ 0.843 µM)	2 µg/mL (≈ 1.69 µM)	CCC[C@@H]1NC(=O)[C@H](C)NC(=O)[C@H](NC(=O)[C@H](CO)NC(=O)[C@@H](NC(=O)[C@H](NC(=O)[C@@H](CCC(N)=O)NC(=O)[C@H](CO)NC(=O)[C@@H](NC(=O)[C@@H](Cc2ccccc2)NC)[C@@H](C)CC)[C@H](C)CC)[C@@H](C)CC)[C@H](C)NC(=O)[C@H]([C@@H](C)CC)NC1=O [T85]	
2 µg/mL (≈ 1.64 µM)	1 µg/mL (≈ 0.821 µM)	2 µg/mL (≈ 1.64 µM)	2 µg/mL (≈ 1.64 µM)	2 µg/mL (≈ 1.64 µM)	1 µg/mL (≈ 0.821 µM)	2 µg/mL (≈ 1.64 µM)	1 µg/mL (≈ 0.821 µM)	2 µg/mL (≈ 1.64 µM)	CC[C@@H](C)[C@@H](NC(=O)[C@@H](CCC(N)=O)NC(=O)[C@H](CO)NC(=O)[C@@H](NC(=O)[C@@H](Cc1ccccc1)NC)[C@@H](C)CC)C(=O)N[C@H](C(=O)N[C@@H](CO)C(=O)N[C@H]1C(=O)N[C@@H](C)C(=O)N[C@@H](CCSC)C(=O)N[C@@H]([C@@H](C)CC)C(=O)N[C@H]1C)[C@@H](C)CC [T86]	
2 µg/mL (≈ 1.67 µM)	0.5 µg/mL (≈ 0.417 µM)								CC[C@@H](C)[C@@H](NC(=O)[C@@H](CCC(N)=O)NC(=O)[C@H](CO)NC(=O)[C@@H](NC(=O)[C@@H](Cc1ccccc1)NC)[C@@H](C)CC)C(=O)N[C@H](C(=O)N[C@@H](CO)C(=O)N[C@H]1C(=O)N[C@@H](C)C(=O)N[C@@H](CC2CC2)C(=O)N[C@@H]([C@@H](C)CC)C(=O)O[C@H]1C)[C@@H](C)CC [β-cyclopropyl-Ala10-teixobactin]	comparable activities as teixobactin

From US20210060121A1, “NOVEL ANTIBIOTICS AND METHODS OF USING THEM” (priority 2018, published 2021)
